According to article PMC7587962, “Evaluation of Cytotoxicity and α-Glucosidase Inhibitory Activity of Amide and Polyamino-Derivatives of Lupane Triterpenoids” (Molecules, 2020):

Assays:
MDA-MB-435 = assay: NCI-60 SRB screen: melanoma MDA-MB-435; assay type: cell-based, human; conditions: MDA-MB-435
RXF 393 = assay: NCI-60 SRB screen: renal cancer RXF 393; assay type: cell-based, human; conditions: RXF 393
CCRF-CEM = assay: NCI-60 SRB screen: leukemia CCRF-CEM; assay type: cell-based; conditions: Homo sapiens, 48 h
A549/ATCC = assay: NCI-60 SRB screen: non-small cell lung cancer A549/ATCC; assay type: cell-based, human; conditions: A549/ATCC
UACC-257 = assay: NCI-60 SRB screen: melanoma UACC-257; assay type: cell-based, human; conditions: UACC-257
EKVX = assay: NCI-60 SRB screen: non-small cell lung cancer EKVX; assay type: cell-based, human
Renal Cancer subpanel = assay: NCI-60 screen, subpanel Renal Cancer
HCC-2998 = assay: NCI-60 SRB screen: colon cancer HCC-2998; assay type: cell-based, human; conditions: HCC-2998
NCI-H322M = assay: NCI-60 SRB screen: non-small cell lung cancer NCI-H322M; assay type: cell-based, human
M14 = assay: NCI-60 SRB screen: melanoma M14; assay type: cell-based, human; conditions: M14
Leukemia subpanel = assay: NCI-60 screen, subpanel Leukemia
OVCAR-4 = assay: NCI-60 SRB screen: ovarian cancer OVCAR-4; assay type: cell-based; conditions: Homo sapiens; OVCAR-4; five concentrations, 48 h, SRB; read-out: GI50
SN12C = assay: NCI-60 SRB screen: renal cancer SN12C; assay type: cell-based, human
SF-539 = assay: NCI-60 SRB screen: CNS cancer SF-539; assay type: cell-based, human; conditions: SF-539
UO-31 = assay: NCI-60 SRB screen: renal cancer UO-31; assay type: cell-based, human; conditions: UO-31
ACHN = assay: NCI-60 SRB screen: renal cancer ACHN; assay type: cell-based, human
SNB-19 = assay: NCI-60 SRB screen: CNS cancer SNB-19; assay type: cell-based, human; conditions: SNB-19
HT29 = assay: NCI-60 SRB screen: colon cancer HT29; assay type: cell-based; conditions: Homo sapiens, HT29
A498 = assay: NCI-60 SRB screen: renal cancer A498; assay type: cell-based, human; conditions: A498
HOP-92 = assay: NCI-60 SRB screen: non-small cell lung cancer HOP-92; assay type: cell-based, human; conditions: HOP-92
KM12 = assay: NCI-60 SRB screen: colon cancer KM12; assay type: cell-based, human; conditions: KM12
RPMI-8226 = assay: NCI-60 SRB screen: leukemia RPMI-8226; assay type: cell-based; conditions: Homo sapiens, 48 h, RPMI-8226
NSCL cancer subpanel = assay: NCI-60 screen, subpanel NSCL cancer
IGROV1 = assay: NCI-60 SRB screen: ovarian cancer IGROV1; assay type: cell-based, human; conditions: IGROV1
MOLT-4 = assay: NCI-60 SRB screen: leukemia MOLT-4; assay type: cell-based; conditions: Homo sapiens, 48 h, MOLT-4
OVCAR-5 = assay: NCI-60 SRB screen: ovarian cancer OVCAR-5; assay type: cell-based, human; conditions: OVCAR-5
[1] = tested on: 60 human tumor cell lines; conditions: single dose 10 µM
HL-60(TB) = assay: NCI-60 SRB screen: leukemia HL-60(TB); assay type: cell-based; conditions: Homo sapiens, 48 h, HL-60(TB)
K-562 = assay: NCI-60 SRB screen: leukemia K-562; assay type: cell-based, human; conditions: K-562
MDA-MB-468 = assay: NCI-60 SRB screen: breast cancer MDA-MB-468; assay type: cell-based, human
Melanoma subpanel = assay: NCI-60 screen, subpanel Melanoma
NCI-H23 = assay: NCI-60 SRB screen: non-small cell lung cancer NCI-H23; assay type: cell-based, human; conditions: NCI-H23
PC-3 = assay: NCI-60 SRB screen: prostate cancer PC-3; assay type: cell-based, human; conditions: PC-3
DU-145 = assay: NCI-60 SRB screen: prostate cancer DU-145; assay type: cell-based, human; conditions: DU-145
SF-295 = assay: NCI-60 SRB screen: CNS cancer SF-295; assay type: cell-based, human; conditions: SF-295
NCI-H522 = assay: NCI-60 SRB screen: non-small cell lung cancer NCI-H522; assay type: cell-based, human; conditions: NCI-H522
NCI-H460 = assay: NCI-60 SRB screen: non-small cell lung cancer NCI-H460; assay type: cell-based; conditions: Homo sapiens, 48 h, NCI-H460
[2] = Homo sapiens, five concentrations, 48 h, SRB, read-out: GI50
[3] = single dose 10 µM, read-out: Percentage Cell Growth
[4] = five concentrations, SRB, read-out: GI50

`C=C(C)[C@@H]1CC[C@]2(C(=O)OC)CC[C@]3(C)[C@H](CC[C@@H]4[C@@]5(C)CCC(=NOCCC(=NOCCC#N)NCCC#N)C(C)(C)[C@@H]5CC[C@]43C)[C@@H]12` [Compound 21] was tested, and the GI50 (MDA-MB-435; [2]) was 9.7 µM, the “Percentage Cell Growth” value (MDA-MB-435; single dose 10 µM) was 14.55% and the GI50 (RXF 393; [2]) was 5.64 µM. The “Percentage Cell Growth” value (RXF 393; single dose 10 µM) was −43.14%, the activity at 10 µM (CCRF-CEM; [3]) was 7.42% and the GI50 (CCRF-CEM; [4]) was 11.7 µM. For the same molecule, the “Percentage Cell Growth” value (A549/ATCC; single dose 10 µM) was 15.82%, the GI50 (A549/ATCC; [2]) was 5.27 µM and the GI50 (UACC-257; [2]) was 5.35 µM. For the same molecule, the “Percentage Cell Growth” value (UACC-257; single dose 10 µM) was 8.82%, the GI50 (EKVX; [2]) was 4.77 µM and the “Percentage Cell Growth” value (EKVX; single dose 10 µM) was 53.13%. For the same molecule, the “MID b, average sensitivity of all cell line of particular subpanel” value (from here on “MID b, average sensitivity”) (Renal Cancer subpanel) was 11.39 µM, the “Selectivity, ratio MID a: MID b” value (Renal Cancer subpanel) was 0.89 and the “Percentage Cell Growth” value (HCC-2998; single dose 10 µM) was 26.92%. For the same molecule, the GI50 (HCC-2998; [2]) was 13.8 µM, the GI50 (NCI-H322M; [2]) was > 50 µM and the “Percentage Cell Growth” value (NCI-H322M; single dose 10 µM) was 46.12%. For the same molecule, the GI50 (M14; [2]) was 11.9 µM, the “Percentage Cell Growth” value (M14; single dose 10 µM) was 26.57% and the “MID b, average sensitivity” value (Leukemia subpanel) was 4.90 µM. For the same molecule, the “Selectivity, ratio MID a: MID b” value (Leukemia subpanel) was 2.09, the GI50 (OVCAR-4) was 12.3 µM and the GI50 (SN12C; [2]) was 7.28 µM. For the same molecule, the “Percentage Cell Growth” value (SN12C; single dose 10 µM) was −71.91%, the GI50 (SF-539; [2]) was 11 µM and the “Percentage Cell Growth” value (SF-539; single dose 10 µM) was −2.29%. For the same molecule, the GI50 (UO-31; [2]) was 15.6 µM, the “Percentage Cell Growth” value (UO-31; single dose 10 µM) was 19.03% and the GI50 (ACHN; [2]) was 10.5 µM. For the same molecule, the “Percentage Cell Growth” value (ACHN; single dose 10 µM) was 13.94%, the GI50 (SNB-19; [2]) was 12.6 µM and the “Percentage Cell Growth” value (SNB-19; single dose 10 µM) was 28.93%. For the same molecule, the activity at 10 µM (HT29; HT-29, 48 h, single dose 10 µM, read-out: Percentage Cell Growth) was 3.88%, the GI50 (HT29; HT-29, five concentrations, 48 h, SRB, read-out: GI50) was 6.7 µM and the “Percentage Cell Growth” value (A498; single dose 10 µM) was −0.38%. The GI50 (A498; [2]) was 21.7 µM, the “Percentage Cell Growth” value (HOP-92; single dose 10 µM) was −14.95% and the GI50 (HOP-92; [2]) was 6.9 µM. For the same molecule, the GI50 (KM12; [2]) was 9.35 µM, the “Percentage Cell Growth” value (KM12; single dose 10 µM) was 10.89% and the activity at 10 µM (RPMI-8226; [3]) was 3.28%. The GI50 (RPMI-8226; [4]) was 4.91 µM, the “MID b, average sensitivity” value (NSCL cancer subpanel) was 12.43 µM and the “Selectivity, ratio MID a: MID b” value (NSCL cancer subpanel) was 0.83. For the same molecule, the GI50 (IGROV1; Homo sapiens, IGROV-1, five concentrations, 48 h, SRB, read-out: GI50) was 14.9 µM, the “Percentage Cell Growth” value (IGROV1; single dose 10 µM) was 18.78% and the activity at 10 µM (MOLT-4; [3]) was -26.8%. The GI50 (MOLT-4; [4]) was 2.52 µM, the GI50 (OVCAR-5; [2]) was 16.7 µM and the “Percentage Cell Growth” value (OVCAR-5; single dose 10 µM) was 50.59%. The “cancer cell lethality, range of percentage growth” value ([1]; cell lines with negative growth) was −0.38% to −84.68%, the “cases of cancer cell lethality” value ([1]; number of cell lines) was 11 and the activity at 10 µM (HL-60(TB); [3]) was 0.9%. The GI50 (HL-60(TB); [4]) was 5.18 µM, the GI50 (K-562; Homo sapiens, K562, five concentrations, 48 h, SRB, read-out: GI50) was 2.23 µM and the “Percentage Cell Growth” value (K-562; single dose 10 µM) was 5.42%. For the same molecule, the GI50 (MDA-MB-468; [2]) was 2.02 µM, the “Percentage Cell Growth” value (MDA-MB-468; single dose 10 µM) was 4.41% and the “MID b, average sensitivity” value (Melanoma subpanel) was 8.81 µM. The “Selectivity, ratio MID a: MID b” value (Melanoma subpanel) was 1.16, the GI50 (NCI-H23; [2]) was 7.59 µM and the “Percentage Cell Growth” value (NCI-H23; single dose 10 µM) was 21.79%. For the same molecule, the GI50 (PC-3; [2]) was 2.26 µM, the “Percentage Cell Growth” value (PC-3; single dose 10 µM) was 4.49% and the “Percentage Cell Growth” value (DU-145; single dose 10 µM) was 27.53%. For the same molecule, the GI50 (DU-145; [2]) was 13.4 µM, the GI50 (SF-295; [2]) was 21.4 µM and the “Percentage Cell Growth” value (SF-295; single dose 10 µM) was 36.56%. For the same molecule, the GI50 (NCI-H522; [2]) was 8.34 µM, the “Percentage Cell Growth” value (NCI-H522; single dose 10 µM) was 13.36% and the activity at 10 µM (NCI-H460; [3]) was 4.23%. The GI50 (NCI-H460; [4]) was 11.1 µM.
